Laboratory results taken from patent US20230365673A1, “MEANS FOR REDUCING RADIO- AND CHEMOTHERAPY RESISTANCE AND ADVERSE EFFECTS” (JOHANN WOLFGANG GOETHE-UNIVERSITÄT FRANKFURT AM MAIN, priority 2020, published 2023).

System: human intestinal fibroblasts
Assay: SA-β-gal staining of irradiated (3×2 Gy) fibroblasts pre-conditioned with IL-1RA low organoid medium
Format: cell-based
Details: IL-1RA low conditioned medium, anakinra 20 μg/mL, 72 h
Description: (A and B) Quantification of IL-1 and IL-1RA baseline serum levels in non-pCR (n=25) and pCR (n=7) patients before CRT. Data are mean±SD. ** p<0.01 by t-test. (C) IL-1RA serum level association with two SNPs: rs4251961 (T/C) and rs579543 (A/G) using DNA isolated from patients (n=31) pre-CRT peripheral blood mononuclear cells. Data are mean±SD. ** p=0.0052 by t-test. (D) Kaplan-Meier DFS curve of patients with high (n=37) and low (n=37) IL-1RN expression score (median split) based on the RNA sequencing data of pre-CRT biopsies. * p<0.05 by Log-rank (Mantel-Cox) test. […] (H) Paired analysis of sirius red staining of non-pCR patients (n=11) pre versus post-CRT. Scale bars=300 μm. (I) Paired quantification of p21 immunohistochemistry staining of non-pCR patients (n=10) pre versus post CRT. (J) Correlation analysis of pre-CRT serum IL-1RA levels with ratio of p21 induction (post/pre-CRT p21 RNA expression level) (n=10 non pCR patients). * p<0.05 by Spearman r correlation test. […] (M) Nitrite concentration determined by Griess assay in supernatants from WT, IL-1RA high & IL-1RA low conditioned media treated human fibroblasts for 72 h (n=13 independent wells per group). […] (N) Nitrite concentration determined by Griess assay in supernatants from untreated and IL-1α (1 μg/mL) stimulated human fibroblasts for 72 h (n=32 independent wells per group representing 3 independent experiments). […]

For “anakinra: Kineret®, an interleukin-1 receptor antagonist”, the “senescence induction upon irradiation (SA-β-gal staining)” value was “could be blocked by anakinra”.
